Measured values reported in BindingDB's records for doi:10.3109/14756366.2011.604852 (Erzincan University, 2012).

Experiments:
Carbonic anhydrase 1 = Carbonic anhydrase 1 (Homo sapiens, UniProt P00915); assay: Esterase Activity Assay; details: pH 7.4; 25 °C
Method: (§1) CA activity was assayed according to method of Verpoorte et al. [Verpoorte et al., J. Biol. Chem., 242:4221-4229] described previously by Innocenti et al. [Innocenti et al., Bioorg. Med. Chem., 18:2159-2164; Innocenti et al., Bioorg. Med. Chem. Lett., 20:5050-5053] CA activity was determined by following thechange in absorbance at 348 nm of 4-nitrophenylacetate (NPA) to 4-nitrophenylate ion over a period of 3 min at 25°C using a spectrophotometer (CHEBIOS UV-VIS). The enzymatic reaction, in a total volume of 3.0 mL, contained 1.4 mL 0.05 M Tris-SO4 buffer (pH 7.4), 1 mL, 3 mM 4-nitrophenylacetate, 0.5 mL H2O and 0.1 mL enzyme solution. A reference measurement was obtained by preparing the same cuvette without enzyme solution. The inhibitory effects of ampicillin sulfate, ceftriaxone, ceftizoxime, ranitidine were examined. All compounds were tested in triplicate at each concentration used. Different inhibitor concentrations were used. HCA-I enzyme activities were measured for ceftriaxone (0.003-0.033 mM), ceftizoxime (0.017-0.096 mM), ranitidine (0.026-0.053 mM) at cuvette concentrations and HCAII enzyme activities were measured for ampicillin sulfate (0.038-0.095 mM), ceftriaxone (0.003-0.021 mM), ceftizoxime (0.026-0.061 mM) and ranitidine (0.032-0.058 mM) at cuvette concentrations.

Carbonic anhydrase 2 = Carbonic anhydrase 2 (Homo sapiens, UniProt P00918); assay: Esterase Activity Assay; details: pH 7.4; 25 °C
Method: as §1

Carbonic anhydrase 1, sequence (P00915 whole entry): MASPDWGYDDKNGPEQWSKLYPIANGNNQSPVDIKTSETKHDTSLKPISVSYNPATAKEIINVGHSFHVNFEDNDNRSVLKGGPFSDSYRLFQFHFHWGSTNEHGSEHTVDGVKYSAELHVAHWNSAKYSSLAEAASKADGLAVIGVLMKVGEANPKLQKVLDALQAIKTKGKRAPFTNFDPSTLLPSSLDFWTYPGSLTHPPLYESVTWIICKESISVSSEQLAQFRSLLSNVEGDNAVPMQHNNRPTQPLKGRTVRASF

| IC50 (Carbonic anhydrase 1) [µM] | Ki (Carbonic anhydrase 1) [µM] | IC50 (Carbonic anhydrase 2) [µM] | Ki (Carbonic anhydrase 2) [µM] | Compound |
| --- | --- | --- | --- | --- |
| 27.1 | 28.5 | 21 | 15.8 | CO/N=C(\C(=O)N[C@@H]1C(=O)N2C(C(=O)O)=C(CSc3nc(=O)c(=O)[nH]n3C)CS[C@H]12)c1csc(N)n1 [(6R,7R)-7-{2-(2-Amino-thiazol-4-yl)-2-[(Z)-methoxyimino]-acetylamino}-3-(2-methyl-5,6-dioxo-1,2,5,6-tetrahydro-[1,2,4]triazin-3-ylsulfanylmethyl)-8-oxo-5-thia-1-aza-bicyclo[4.2.0]oct-2-ene-2-carboxylic acid] |
| – | – | 56.8 | 83 | CC1(C)S[C@@H]2[C@H](NC(=O)[C@H](N)c3ccccc3)C(=O)N2[C@H]1C(=O)O [AY-6108] |
| 79.4 | 86.1 | 79.1 | 51.8 | CO/N=C(\C(=O)N[C@@H]1C(=O)N2C(C(=O)O)=CCS[C@H]12)c1csc(N)n1 [Ceftizoxime] |
| 55.5 | 54.7 | 66.1 | 29.7 | CN/C(=C\[N+](=O)[O-])NCCSCc1ccc(CN(C)C)o1 [Ranitidine] |
